In patent US20180371076A1, “MATERNAL TH17 CELLS AND PSYCHIATRIC DISORDERS” (New York University, priority 2017, published 2018):

B1: recombinant IL-17a protein: Recombinant mouse IL-17a cytokine (R&D), injected into the fetal brain ventricle (protein, UniProt Q62386 26-158, looked up)
Interleukin-17A: AAIIPQSSACPNTEAKDFLQNVKVNLKVFNSLGAKVSSRRPSDYLNRSTSPWTLHRNEDPDRYPSVIWEAQCRHQRCVNAEGKLDHHMNSVLIQQEILVLKREPESCPFTFRVEKMLVGVGCTCVASIVRQAA

Legend:
[1] = system: offspring of pregnant mice (MIA mouse model); experiment: Three-chamber social approach test in adult offspring; format: in vivo
Protocol: Maternal Immune Activation. Mice were mated overnight and females were checked daily for the presence of seminal plugs, noted as embryonic day 0.5 (E0.5). On E12.5, pregnant female mice were weighed and injected with a single dose (20 mg/kg; i.p.) of poly(I:C) (Sigma Aldrich) or PBS vehicle. Each dam was returned to its cage and left undisturbed until the birth of its litter. All pups remained with the mother until weaning on postnatal day 21 (P21), at which time mice were group housed at maximum 5 per cage with same-sex littermates. For the IL-17 cytokine blockade experiment, monoclonal IL-17a blocking antibody (clone 50104; R&D) or isotype control antibody (IgG2a, clone 54447; R&D) was administered 6 h before maternal immune activation (FIG. 2) via i.p. route (500 μg/animal) or 2 days after maternal immune activation (FIG. 5) via i.p. route (500 μg/animal).
Three-chamber social approach. Twelve-week-old male mice were tested for social behavior using a three-chamber social approach paradigm. Experimental mice were habituated for 1 h in separate clean holding cages and then introduced into a three-chamber arena with only empty object-containment cages (circular metallic cages, Stoelting Neuroscience) for a 10-min acclimation phase in two 5-min sessions in a 3-4 h period. The following day the mice were placed in the center chamber (without access to the left and right social test areas) and allowed to explore the center area for 5 min. […] Experimental mice were given 10 min to explore both chambers and measured for approach behavior as interaction time (i.e. sniffing, approach) with targets in each chamber (within 2 cm, excluding non-nose contact or exploration). Sessions were video-recorded and object exploration time and total distance moved were analyzed using the Noldus tracking system. A social preference index was calculated as the percentage of time spent investigating the social target out of the total exploration time of both objects. […]

IL-17Ra mRNA = IL-17Ra mRNA in fetal brain (real-time PCR, in situ hybridization); format: in vivo, mouse; settings: E14.5
Protocol: In Situ Hybridization. E14.5 embryos from PBS or poly(I:C)-treated mothers were collected in ice-cold PBS and subsequently fixed in 4% paraformaldehyde for 4 h at 4° C. Isolated brains were dehydrated in 30% sucrose/PBS solution overnight, and then embedded in Tissue Tek O.C.T. compound (Sakura Finetek, Torrance, Calif.). The blocks were sectioned at 16-μm thickness using a cryostat (Leica). Fluorescent in situ hybridization was performed using a branched cDNA probe with amplification technology (ViewRNA ISH Tissue Assay kit, Panomics, Santa Clara) according to the manufacturer's protocol. […]
Real-Time PCR Total RNA was extracted from the cerebral cortex of E14.5 fetal brain of male embryo (RNase plus mini kit, Qiagen) as well as from the decidua- and the placenta-derived mononuclear cells and reverse transcribed into cDNA using oligodT (ProtoScript first strand cDNA synthesis kit, NEB) according to the manufacturer's instructions. mRNA levels of target genes (il17ra, il17rc, il17a and il6) were quantified with a Real-Time PCR System (CFX connect Real-Time PCR, Bio-Rad) using fluorescent SYBR Green technology (Bio-Rad). […] Changes in relative gene expression normalized to gapdh or actin levels were determined using the relative threshold cycle method based on the Cont-PBS group. […]

[2] = Properties of the litter (gender ratio, litter size, offspring weight); format: in vivo, mouse; settings: PBS vs poly(I:C), control vs anti-IL-17a treated dams

Molecule	social interaction in adult offspring ([1]; prenatal exposure to MIA (poly(I:C) at E12.5))	IL-17Ra mRNA in fetal brain (real-time PCR) (IL-17Ra mRNA; induction of MIA)	IL-17Ra mRNA in fetal brain cortex (in situ hybridization) (IL-17Ra mRNA; poly(I:C) injection of pregnant dams)	gender ratios, litter sizes and weights [2]	mobility (total distance in social approach test) ([1]; intra-ventricular injection at E14.5)	social approach behavior ([1]; intra-ventricular injection at E14.5, compared with sham injection)
poly(I:C)	social interaction deficits	strongly augmented	strongly up-regulated	not affected	–	–
B1	–	–	–	–	not due to group differences in mobility	social approach deficit
